In patent publication US6737383B1, “Herbicidal oxadiazolidines” (priority 1999, dated 2004):

Assays:
crabgrass = assay: Test B pre/postemergence crabgrass; assay type: in vivo, Digitaria sanguinalis
Outline: (§1)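 Response is a visual 0-to-10 score relative to untreated plants, where 0 means no effect and 10 means complete control, taken twelve to sixteen days after application. Treatments went onto soil at planting and onto foliage of 1- to 4-leaf plants, using a surfactant-containing non-phytotoxic solvent.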

purple nutsedge = assay: Test B pre/postemergence purple nutsedge; assay type: in vivo, Cyperus rotundus
Outline: as §1

duck salad = assay: Test B flood test duck salad; assay type: in vivo, Heteranthera limosa
Outline: (§2)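 Flood test on plants grown to the 2-leaf stage; treated plants kept in greenhouse twelve to sixteen days, then visually rated against controls on a 0 (no effect) to 10 (complete control) scale.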

wild oat = assay: Test B pre/postemergence wild oat; assay type: in vivo, Avena fatua
Outline: as §1

giant foxtail = assay: Test B pre/postemergence giant foxtail; assay type: in vivo, Setaria faberii
Outline: as §1

morningglory = assay: Test B pre/postemergence morningglory; assay type: in vivo, Ipomoea hederacea
Outline: as §1

rice = assay: Test B flood test rice; assay type: in vivo, Oryza sativa
Outline: as §2

smallflower flatsedge = assay: Test B flood test smallflower flatsedge; assay type: in vivo, Cyperus difformis
Outline: as §2

blackgrass = assay: Test B pre/postemergence blackgrass; assay type: in vivo, Alopecurus myosuroides
Outline: as §1

corn = assay: Test B pre/postemergence corn; assay type: in vivo, Zea mays
Outline: as §1

cocklebur = assay: Test B pre/postemergence cocklebur; assay type: in vivo, Xanthium strumarium
Outline: as §1

velvetleaf = assay: Test B pre/postemergence velvetleaf; assay type: in vivo, Abutilon theophrasti
Outline: as §1

rape = assay: Test B pre/postemergence rape; assay type: in vivo, Brassica napus
Outline: as §1

bamyardgrass = assay: Test B flood test barnyardgrass; assay type: in vivo, Echinochloa crus-galli
Outline: as §2

bedstraw = assay: Test B pre/postemergence bedstraw; assay type: in vivo, Galium aparine; details: Preemergence
Outline: as §1

surinam grass = assay: Test B pre/postemergence surinam grass; assay type: in vivo, Brachiaria decumbens
Outline: as §1

soybean = assay: Test B pre/postemergence soybean; assay type: in vivo, Glycine max
Outline: as §1

wheat = assay: Test B pre/postemergence wheat; assay type: in vivo, Triticum aestivum
Outline: as §1

sugar beet = assay: Test B pre/postemergence sugar beet; assay type: in vivo, Beta vulgaris
Outline: as §1

pigweed = assay: Test B pre/postemergence pigweed; assay type: in vivo, Amaranthus retroflexus
Outline: as §1

[1] = Postemergence, Rate 62 g/ha, scale of 0 to 10, 0 is no effect, 10 is complete control
[2] = Postemergence, Rate 125 g/ha, scale of 0 to 10 where 0 is no effect and 10 is complete control
[3] = Postemergence, Rate 250 g/ha, scale of 0 to 10, 0 is no effect, 10 is complete control
[4] = Postemergence, Rate 500 g/ha, scale of 0 to 10 where 0 is no effect and 10 is complete control
[5] = Preemergence, Rate 62 g/ha, scale 0 to 10 (0 no effect, 10 complete control)
[6] = Preemergence, Rate 125 g/ha, scale of 0 to 10 where 0 is no effect and 10 is complete control
[7] = Preemergence, Rate 500 g/ha, scale of 0 to 10 where 0 is no effect and 10 is complete control
[8] = Rate 62 g/ha, flood test species, Pre-emergence, visual evaluation after twelve to sixteen days
[9] = Rate 125 g/ha, under heading Pre-emergence, flood test species, visual evaluation after twelve to sixteen days
[10] = Rate 250 g/ha, Pre-emergence (flood test species), scale 0 to 10, 0 is no effect, 10 is complete control
[11] = Rate 500 g/ha, Pre-emergence section of Table B, 0 to 10 scale (0 no effect, 10 complete control)

COC(C)n1c(=O)on(C(=O)N(c2ccc(Cl)cc2)C(C)C)c1=O (stereo not shown) [Compound 592]
1: Morningglory plant response rating (morningglory; [1]) | Plant response rating, Morningglory (morningglory; [2]) | Plant response rating, Soybean (soybean; [2]) | Soybean plant response rating (soybean; [3]) | Plant response rating, Soybean (soybean; [4])
0: Crabgrass plant response rating (crabgrass; [1]) | Plant response rating, Crabgrass (crabgrass; [2]) | Crabgrass plant response rating (crabgrass; [3]) | Crabgrass plant response rating (crabgrass; [5]) | Crabgrass plant response rating (crabgrass; [6]) | Nutsedge plant response rating (purple nutsedge; [1]) | Plant response rating, Nutsedge (purple nutsedge; [2]) | Nutsedge plant response rating (purple nutsedge; [3]) | Plant response rating, Nutsedge (purple nutsedge; [4]) | Nutsedge plant response rating (purple nutsedge; [5]) | Nutsedge plant response rating (purple nutsedge; [6]) | Plant response rating, Nutsedge (purple nutsedge; [7]) | Plant response rating, Ducksalad (0 to 10 scale, 0 is no effect, 10 is complete control) (duck salad; [8]) | Ducksalad plant response rating (0 to 10 scale, 0 is no effect, 10 is complete control) (duck salad; [9]) | Ducksalad plant response rating (duck salad; [10]) | Ducksalad plant response rating (duck salad; [11]) | Plant response rating, Wild oats (wild oat; [2]) | Wild oats plant response rating (wild oat; [3]) | Plant response rating, Wild oats (wild oat; [4]) | Wild oats plant response rating (wild oat; [5]) | Wild oats plant response rating (wild oat; [6]) | Plant response rating, Wild oats (wild oat; [7]) | Giant foxtail plant response rating (giant foxtail; [1]) | Plant response rating, Giant foxtail (giant foxtail; [2]) | Giant foxtail plant response rating (giant foxtail; [3]) | Plant response rating, Giant foxtail (giant foxtail; [4]) | Giant foxtail plant response rating (giant foxtail; [5]) | Giant foxtail plant response rating (giant foxtail; [6]) | Plant response rating, Giant foxtail (giant foxtail; [7]) | Morningglory plant response rating (morningglory; [5]) | Morningglory plant response rating (morningglory; [6]) | Plant response rating, Morningglory (morningglory; [7]) | Plant response rating, Rice (0 to 10 scale, 0 is no effect, 10 is complete control) (rice; [8]) | Rice plant response rating (0 to 10 scale, 0 is no effect, 10 is complete control) (rice; [9]) | Rice plant response rating (rice; [10]) | Rice plant response rating (rice; [11]) | Plant response rating, S. Flatsedge (0 to 10 scale, 0 is no effect, 10 is complete control) (smallflower flatsedge; [8]) | S. Flatsedge plant response rating (0 to 10 scale, 0 is no effect, 10 is complete control) (smallflower flatsedge; [9]) | S. Flatsedge plant response rating (smallflower flatsedge; [10]) | S. Flatsedge plant response rating (smallflower flatsedge; [11]) | Blackgrass plant response rating (blackgrass; [1]) | Plant response rating, Blackgrass (blackgrass; [2]) | Blackgrass plant response rating (blackgrass; [3]) | Plant response rating, Blackgrass (blackgrass; [4]) | Blackgrass plant response rating (blackgrass; [5]) | Blackgrass plant response rating (blackgrass; [6]) | Blackgrass plant response rating (0 to 10 scale) (blackgrass; Preemergence, Rate 250 g/ha) | Blackgrass plant response rating (blackgrass; [7]) | Corn plant response rating (corn; [1]) | Plant response rating, Corn (corn; [2]) | Corn plant response rating (corn; [3]) | Plant response rating, Corn (corn; [4]) | Corn plant response rating (corn; [5]) | Corn plant response rating (corn; [6]) | Corn plant response rating (0 to 10 scale) (corn; Preemergence, Rate 250 g/ha) | Plant response rating, Corn (corn; [7]) | Cocklebur plant response rating (cocklebur; [1]) | Plant response rating, Cocklebur (cocklebur; [2]) | Cocklebur plant response rating (cocklebur; [3]) | Plant response rating, Cocklebur (cocklebur; [4]) | Cocklebur plant response rating (cocklebur; [5]) | Cocklebur plant response rating (cocklebur; [6]) | Cocklebur plant response rating (0 to 10 scale) (cocklebur; Preemergence, Rate 250 g/ha) | Plant response rating, Cocklebur (cocklebur; [7]) | Plant response rating, Velvetleaf (velvetleaf; [2]) | Velvetleaf plant response rating (velvetleaf; [3]) | Plant response rating, Velvetleaf (velvetleaf; [4]) | Velvetleaf plant response rating (velvetleaf; [5]) | Velvetleaf plant response rating (velvetleaf; [6]) | Plant response rating, Velvetleaf (velvetleaf; [7]) | Rape plant response rating (rape; [1]) | Plant response rating, Rape (rape; [2]) | Rape plant response rating (rape; [3]) | Plant response rating, Rape (rape; [4]) | Rape plant response rating (rape; [5]) | Rape plant response rating (rape; [6]) | Plant response rating, Rape (rape; [7]) | Plant response rating, Barnyardgrass (0 to 10 scale, 0 is no effect, 10 is complete control) (bamyardgrass; [8]) | Barnyardgrass plant response rating (0 to 10 scale, 0 is no effect, 10 is complete control) (bamyardgrass; [9]) | Barnyardgrass plant response rating (bamyardgrass; [10]) | Barnyardgrass plant response rating (bamyardgrass; [11]) | Bedstraw plant response rating (bedstraw; Rate 62 g/ha, scale 0 to 10 (0 no effect, 10 complete control)) | Bedstraw plant response rating (bedstraw; Rate 125 g/ha, scale of 0 to 10 where 0 is no effect and 10 is complete control) | B. signalgrass plant response rating (surinam grass; [1]) | Plant response rating, B. signalgrass (surinam grass; [2]) | B. signalgrass plant response rating (surinam grass; [3]) | Plant response rating, B. signalgrass (surinam grass; [4]) | B. signalgrass plant response rating (surinam grass; [5]) | B. signalgrass plant response rating (surinam grass; [6]) | B. signalgrass plant response rating (0 to 10 scale, 0 is no effect, 10 is complete control) (surinam grass; Preemergence, Rate 250 g/ha) | B. signalgrass plant response rating (surinam grass; [7]) | Soybean plant response rating (soybean; [5]) | Soybean plant response rating (soybean; [6]) | Plant response rating, Soybean (soybean; [7]) | Plant response rating, Wheat (wheat; [2]) | Wheat plant response rating (wheat; [3]) | Plant response rating, Wheat (wheat; [4]) | Wheat plant response rating (wheat; [5]) | Wheat plant response rating (wheat; [6]) | Plant response rating, Wheat (wheat; [7]) | Plant response rating, Sugarbeets (sugar beet; [2]) | Sugarbeets plant response rating (sugar beet; [3]) | Plant response rating, Sugarbeets (sugar beet; [4]) | Sugarbeets plant response rating (sugar beet; [5]) | Sugarbeets plant response rating (sugar beet; [6]) | Plant response rating, Sugarbeets (sugar beet; [7]) | Plant response rating, Redroot pigweed (pigweed; [2]) | Redroot pigweed plant response rating (pigweed; [3]) | Plant response rating, Redroot pigweed (pigweed; [4]) | Redroot pigweed plant response rating (pigweed; [5]) | Redroot pigweed plant response rating (pigweed; [6]) | Plant response rating, Redroot pigweed (pigweed; [7])
2: Plant response rating, Crabgrass (crabgrass; [4]) | Plant response rating, Crabgrass (crabgrass; [7]) | Morningglory plant response rating (morningglory; [3]) | Plant response rating, Morningglory (morningglory; [4])
